In brackets after ≈: the same amount, converted by molar mass. Counter-ions that a name gives are not always drawn.
Experiments:
Type in all cases: physicochemical
[1] = Thermodynamic stability compared with the amorphous freebase (TGA); conditions: compared with amorphous freebase of Compound A
Protocol: The TGA curve of the amorphous freebase of Compound A indicated a substantial and gradual weight loss starting at 30° C. and continuing to 150° C. with a total of about 17% loss.
TGA data were collected using a TA Q5000/Discovery 5500 TGA from TA Instruments. DSC was performed using a TA Q2000/Discovery 2500 DSC from TA Instruments.

[2] = Equilibrium solubility in SGF, H2O, FaSSIF and FeSSIF, slurry at 37° C. for 24 hrs; conditions: for Form of residual solid (XRPD) / Solubility / pH of supernatant: 37° C., 24 hrs
Protocol: About 10-50 mg of each sample was weighed into 1.0 mL of each medium followed by slurry at 37° C. for 24 hrs. The samples were centrifuged and filtered using 0.45 μm PTFE filter. The solids were tested by XRPD and the supernatants were tested by HPLC and pH.

[3] = Solid-state stability of the forms under storage (HPLC purity, XRPD form); conditions: for Form change on storage: all tested stability conditions
Protocol: It only slightly degraded at 60° C. after 2 weeks and at 80° C. after 3 days.

[4] = Hygroscopicity by DVS isotherm at 25° C. between 0% RH and 95% RH, XRPD after DVS; conditions: for Water uptake (DVS): 25° C./80% RH; for Form change after DVS test (XRPD): after DVS at 25° C., 0% RH-95% RH
Protocol: DVS data was measured via a SMS (Surface Measurement Systems) DVS Intrinsic. The relative humidity at 25° C. was calibrated against the deliquescence point of LiCl, Mg(NO3)2 and KCl.

[5] = Initial, for the 25° C./60% RH, 40° C./75% RH and 60° C. series

Structure (SMILES)	Thermodynamic stability [1]	Solubility ([2]; FaSSIF) [µg/mL]	pH of supernatant ([2]; FaSSIF)	Form of residual solid (XRPD) ([2]; FeSSIF)	Solubility ([2]; FeSSIF) [µg/mL]	pH of supernatant ([2]; FeSSIF)	Form of residual solid (XRPD) ([2]; H2O)	Solubility ([2]; H2O) [µg/mL]	pH of supernatant ([2]; H2O)	Form of residual solid (XRPD) ([2]; SGF)	Solubility ([2]; SGF) [µg/mL]	pH of supernatant ([2]; SGF)	Purity (area %) ([3]; 25° C./60% RH, 2 week)	Purity/Initial (%) ([3]; 25° C./60% RH, 2 week)	Purity (area %) ([3]; 25° C./60% RH, 4 week)	Purity/Initial (%) ([3]; 25° C./60% RH, 4 week)	Purity (area %) ([3]; 40° C./75% RH, 2 week)	Purity/Initial (%) ([3]; 40° C./75% RH, 2 week)	Purity (area %) ([3]; 40° C./75% RH, 4 week)	Purity/Initial (%) ([3]; 40° C./75% RH, 4 week)	also measured
C=CCn1c(=O)c2cnc(Nc3ccc(N4CCN(C)CC4)cc3)nc2n1-c1ccc2c(n1)[C@@](O)(CC)CC2 [Freebase Form E]	more thermodynamically stable than the amorphous freebase	1400 (≈ 2.66 mM)	6.8	Amorphous	2600 (≈ 4.94 mM)	5.4	Freebase Form E	99 (≈ 0.188 mM)	8.4	Freebase Form E	9000 (≈ 17.1 mM)	6.6	99.37	100.0	99.39	100.0	99.45	100.1	99.45	100.1	Form of residual solid (XRPD) ([2]; FaSSIF): Freebase Form E; Solid state stability ([3]; 4 weeks at 25° C./60% RH, 40° C./75% RH and 60° C., 7 days at 80° C.): stable; Purity (area %) ([3]; 60° C., 2 week): 99.35 area %; Purity/Initial (%) ([3]; 60° C., 2 week): 100.0%; Purity (area %) ([3]; 60° C., 4 week): 99.16 area %; Purity/Initial (%) ([3]; 60° C., 4 week): 99.8%; Purity (area %) ([3]; 80° C., 1 day): 99.48 area %; Purity/Initial (%) ([3]; 80° C., 1 day): 100.0%; Purity (area %) ([3]; 80° C., 3 day): 99.31 area %; Purity/Initial (%) ([3]; 80° C., 3 day): 99.9%; Purity (area %) ([3]; 80° C., 7 day): 99.12 area %; Purity/Initial (%) ([3]; 80° C., 7 day): 99.7%; Purity (area %) [3, 5]: 99.35 area %; Purity (area %) ([3]; Initial, for the 80° C. series): 99.44 area %; Form change on storage [3]: no form change; Water uptake (DVS) ([4]; listed as freebase Form E of Compound A): 0.6%; Form change after DVS test (XRPD) [4]: No form change
C=CCn1c(=O)c2cnc(Nc3ccc(N4CCN(C)CC4)cc3)nc2n1-c1ccc2c(n1)[C@@](O)(CC)CC2 [Adipate salt Form A]	more thermodynamically stable than the amorphous freebase	30800	4.8	Adipate Salt Form A	5600	4.8	Adipate Salt Form A	25500	4.7	Adipate Salt Form A	34100	4.4	98.85	100.1	98.91	100.2	98.82	100.1	98.85	100.1	Solubility comparison ([2]; SGF, H2O, FaSSIF, FeSSIF): higher solubility than freebase Form E of Compound A; Solid state stability ([3]; 4 weeks at 25° C./60% RH and 40° C./75% RH, 2 weeks at 60° C., 3 days at 80° C.): stable; Purity (area %) ([3]; 60° C., 2 week): 98.25 area %; Purity/Initial (%) ([3]; 60° C., 2 week): 99.5%; Purity (area %) ([3]; 60° C., 4 week): 97.80 area %; Purity/Initial (%) ([3]; 60° C., 4 week): 99.1%; Purity (area %) ([3]; 80° C., 1 day): 99.02 area %; Purity/Initial (%) ([3]; 80° C., 1 day): 100.0%; Purity (area %) ([3]; 80° C., 3 day): 98.77 area %; Purity/Initial (%) ([3]; 80° C., 3 day): 99.7%; Purity (area %) ([3]; 80° C., 7 day): 98.44 area %; Purity/Initial (%) ([3]; 80° C., 7 day): 99.4%; Purity (area %) [3, 5]: 98.72 area %; Purity (area %) ([3]; Initial, for the 80° C. series): 99.03 area %; Degradation ([3]; after 4 weeks at 60° C.): 0.9%; Degradation ([3]; after 7 days at 80° C.): 0.6%; Form change on storage [3]: no form change; Water uptake (DVS) [4]: 2.2%; Form change after DVS test (XRPD) [4]: No form change
C=CCn1c(=O)c2cnc(Nc3ccc(N4CCN(C)CC4)cc3)nc2n1-c1ccc2c(n1)[C@@](O)(CC)CC2 [freebase Form J]	more thermodynamically stable than the amorphous freebase	–	–	–	–	–	–	–	–	–	–	–	–	–	–	–	–	–	–	–	–
